# Assay results published in patent publication US20220194938A1, “NOVEL COMPOUNDS AND PHARMACEUTICAL COMPOSITIONS THEREOF FOR THE TREATMENT OF INFLAMMATORY DISORDERS” (GALAPAGOS NV, priority 2019, published 2022).
# Values joined by “and” are separate entries in the source; they are usually repeats but may differ in a detail not shown here. Equal entries are not always repeated. Where two headings read alike, the source gives them in different places.
# What was measured:
# [1] = system: pooled cryopreserved hepatocytes; test: Metabolic stability in hepatocytes (mouse); assay type: in vitro ADME; conditions: 1 μM test compound
# Method: (§1) 4.6. Metabolic Stability in Hepatocytes
# (§2) The aim of this assay is to determine the metabolic stability of the compound in hepatocytes (cryopreserved) of different species. Low hepatocyte stability may result in the formation of unwanted metabolites, high clearance, and therefore is not desirable.
# (§3) The decrease in parent was assessed by measuring the percentage remaining by LC-MS/MS analysis.
# (§4) A 10 mM stock solution of test compound in DMSO was first diluted in DMSO to 3 mM, and then in modified Krebs-Henseleit buffer (Sigma, K3753) to 5 μM. This compound dilution was added to a suspension of pooled cryopreserved hepatocytes (BioreclamationIVT) at 37° C. under gentle shaking.
# (§5) Final reaction conditions were: 1 μM of test compound, 0.03% DMSO, 0.5 million viable hepatocytes/mL, and 75 μL incubation volume.
# (§6) Testosterone (1 μM) and 7-hydroxycoumarin (1 μM) were used, respectively as phase I and phase II metabolic reaction controls.
# (§7) After 0, 10, 20, 45, 90, 120 and 180 min of incubation, the reaction was terminated with 225 μL of MeCN:MeOH (2:1) containing 100 ng/mL of diclofenac as analytical internal standard. Samples were mixed, centrifuged and the supernatant analyzed by LC-MS/MS.
# (§8) The instrument responses (ratios of test compound and internal standard peak areas) were referenced to the zero time point samples (considered as 100%) in order to determine the percentage of compound remaining.
# (§9) Plots of percentage compound remaining are used to determine the intrinsic clearance in the hepatocyte incubations using the following equations:
# (§10) Scaled Clint[L/h/kg]=Clint[μL/min/10^6 cells]*#(10^6) cells/g liver*60*(1/10^6) Scaled Clint unbound [L/h/kg]=Clint [L/h/kg]/Fu,inc where: fu,inc equals hepatocyte binding, derived from microsomal binding (fu,mic) by following equation: […]
# [2] = system: pooled cryopreserved hepatocytes; test: Metabolic stability in hepatocytes (human); assay type: in vitro ADME; conditions: 1 μM test compound
# Method: as §1, §2, §3, §4, §5, §6, §7, §8, §9, §10
# Thermodynamic solubility = assay type: physicochemical; conditions: 37° C.; for solubility thermodynamic at 24 h: thermodynamic from solid
# From the text: 4.2. Thermodynamic Solubility
# Poor solubility, in particular poor thermodynamic solubility can limit the absorption of compounds from the gastrointestinal tract which in turn may reduce oral bioavailability.
# Thermodynamic solubility investigates the solubility of a compound as a saturated solution in equilibrium, by opposition to kinetic solubility, which measures the solubility of a metastable solution where supersaturation may occur and provide over estimation of the actual solubility of the compound. (Klein 2010)
# 4.2.1. Thermodynamic Solubility—Protocol 1
# (§11) In a 8 mL glass vial, 1-2 mg of dry matter of compound are added and stirred with the suitable buffers (Fed State Simulated Intestine Fluid, FeSSIF, or Fasted State Simulated Intestine Fluid, FaSSIF, or Fasted State Simulated Gastric Fluid, FaSSGF, or phosphate buffer pH 7.4) for 24 h at r.t. (for the buffer pH 7.4) or 37° C. (for the GI fluids). The concentration of the mixture is 1 mg/mL.
# A volume of 500 μL are sampled, centrifuged for 10 min at 10 000 rpm and filtered. The samples are diluted in duplicates in DMSO (F100 and F10). Then, a final dilution (F100) in 80/20 H2O/MeCN containing the internal standard (warfarin) is used for LCMS-MS analysis.
# A standard curve is made starting from a 200,000 ng/mL stock in DMSO, freshly prepared from dry matter. Then, successive concentrations at […], 1,000, 200 and 75 ng/mL in DMSO are prepared by using the Tecan robot.
# Two quality control samples are made: one of 10,000 ng/mL and one of 500 ng/mL in DMSO, also starting from the DMSO working stock solution at 200,000 ng/mL.
# The standard curve and quality controls are diluted a F100 in 80/20 H2O/MeCN (with internal standard) and analyzed on LC/MS-MS (API4000 or API5500).
# (§12) The samples are analyzed on LC-MS with a flow rate of 0.6 mL/min. The mobile phase A is 0.1% formic acid in water and the mobile phase B is 0.1% formic acid in MeCN. The sample is run under positive or negative ion spray on Pursuit C18-5 μm (2.0×20 mm) column, from Agilent.
# The peak areas of the standard curve are plotted in a graph and a linear or polynomial of the second order equation is used to calculate the unknown concentrations of the test compound.
# 4.2.2. Thermodynamic Solubility—Protocol 2
# as §11, with “In an” for “In a”, “compound were” for “compound are”, “mixture was” for “mixture is”
# A volume of 1000 μL were sampled, centrifuged for 10 min at 10 000 rpm and 500 μL of the supernatant were filtered on captiva plate. The samples were diluted in duplicates in DMSO (F100 and F10). Then, a final dilution (F100) in 80/20 H2O/MeCN containing the internal standard (warfarin) was used for LCMS-MS analysis.
# A standard curve was made starting from a 40,000 ng/mL stock in DMSO, freshly prepared from dry matter. Then, successive concentrations at 15,000, 11,000, 6,000, 2,500, 1,000, 375, 150 and 75 ng/mL in DMSO were prepared.
# Three quality control samples were made: one of 10,000, 1,500 and 200 ng/mL in DMSO, also starting from the DMSO working stock solution at 40,000 ng/mL.
# The standard curve and quality controls were diluted a F100 in 80/20 H2O/MeCN (with internal standard) and analyzed on LC/MS-MS (API4000 or API5500).
# as §12, with “were” for “are”, “was” for “is”, “90% acetonitrile and 10% of water.” for “MeCN.”, “Agilent. […]” for “Agilent.”
# [3] = Fasted State Simulated Gastric Fluid, 24 h
# [4] = Fasted State Simulated Intestine Fluid, 24 h
# [5] = Fasted State Simulated Gastric Fluid (FaSSGF), fassgf or other biorelevant, Fasted State Simulated Gastric Fluid, read-out: Tsol FaSSGF
# [6] = Fasted State Simulated Intestine Fluid (FaSSIF), fassif, Fasted State Simulated Intestine Fluid, read-out: Tsol FaSSIF
# [7] = Fed State Simulated Intestine Fluid (FeSSIF), fessif, Fed State Simulated Intestine Fluid, read-out: Tsol FeSSIF
Structure (SMILES),Mouse (Perc. remaining at 90 min) [1] [%],Human (Perc. remaining at 90 min) [2] [%],Tsol FaSSGF (Thermodynamic solubility; [3]),Tsol FaSSIF (Thermodynamic solubility; [4]),"Tsol FeSSIF (Thermodynamic solubility; Fed State Simulated Intestine Fluid, 24 h)",solubility thermodynamic at 24 h (Thermodynamic solubility; [5]) [µg/mL],solubility thermodynamic at 24 h (Thermodynamic solubility; [6]) [µg/mL],solubility thermodynamic at 24 h (Thermodynamic solubility; [7]) [µg/mL]
"[2H]C([2H])([2H])NC(=O)c1cc2nc(CCC(C)(C)O)cn2cc1NC(=O)c1cccc(C(F)(F)F)n1 [Compound 1, 2-(3-hydroxy-3-methyl-butyl)-N-(trideuteriomethyl)-6-[[6-(trifluoromethyl)pyridine-2-carbonyl]amino]imidazo[1,2-a]pyridine-7-carboxamide]",96.3,96.4,–,–,–,–,–,–
"CNC(=O)c1cc2nc(CCC(C)(C)O)cn2cc1NC(=O)c1cccc(C(F)(F)F)n1 [Compound 2, 2-(3-hydroxy-3-methyl-butyl)-N-methyl-6-[[6-(trifluoromethyl)pyridine-2-carbonyl]amino]imidazo[1,2-a]pyridine-7-carboxamide]",103.4,99.9,673 µg/mL and 969 µg/mL,9.08 µg/mL and 9.24 µg/mL,35.4 µg/mL and 25.8 µg/mL,–,–,–
"COc1cc2nc(CCC(C)(C)O)cn2cc1NC(=O)c1cccc(C)n1 [Compound 6, N-[2-(3-hydroxy-3-methyl-butyl)-7-methoxy-imidazo[1,2-a]pyridin-6-yl]-6-methyl-pyridine-2-carboxamide]",4.5,30.3,–,–,–,–,692,–
"COc1cccc(C(=O)Nc2cn3cc(CCC(C)(C)O)nc3cc2OC)n1 [Compound 8, N-[2-(3-hydroxy-3-methyl-butyl)-7-methoxy-imidazo[1,2-a]pyridin-6-yl]-6-methoxy-pyridine-2-carboxamide]",26.4,78.4,–,–,–,–,8.56,–
"COc1cc2nc(CCC(C)(C)O)cn2cc1NC(=O)c1cccn(C(F)F)c1=O [Compound 12, 1-(difluoromethyl)-N-[2-(3-hydroxy-3-methyl-butyl)-7-methoxy-imidazo[1,2-a]pyridin-6-yl]-2-oxo-pyridine-3-carboxamide]",88.1,100.7,–,–,–,> 1000,188,–
"COc1cc2nc(CCC(C)(C)O)cn2cc1NC(=O)c1cccn(CC(F)(F)F)c1=O [Compound 13, N-[2-(3-hydroxy-3-methyl-butyl)-7-methoxy-imidazo[1,2-a]pyridin-6-yl]-2-oxo-1-(2,2,2-trifluoroethyl)pyridine-3-carboxamide]",109.5,105.95,–,–,–,–,600,–
"CCOc1c(NC(=O)c2cccn(C3CC3)c2=O)cn2cc(CCS(C)(=O)=O)nc2c1F [Compound 39, 1-cyclopropyl-N-[7-ethoxy-8-fluoro-2-(2-methylsulfonylethyl)imidazo[1,2-a]pyridin-6-yl]-2-oxo-pyridine-3-carboxamide]",–,–,">1000, μg/mL",7.3 µg/mL and 7.50 µg/mL,–,> 1000,–,20.9
"CCNC(=O)c1cc2nc(CCC(C)(C)O)cn2cc1NC(=O)c1cccc(C(F)(F)F)n1 [Compound 49, N-ethyl-2-(3-hydroxy-3-methylbutyl)-6-(6-(trifluoromethyl)picolinamido)imidazo[1,2-a]pyridine-7-carboxamide]",87.15,95.9,–,–,–,–,–,–

# Other lines, results leading:
Mouse (Perc. remaining at 90 min) [1] [%],Human (Perc. remaining at 90 min) [2] [%],Tsol FaSSGF (Thermodynamic solubility; [3]),Tsol FaSSIF (Thermodynamic solubility; [4]),"Tsol FeSSIF (Thermodynamic solubility; Fed State Simulated Intestine Fluid, 24 h)",solubility thermodynamic at 24 h (Thermodynamic solubility; [5]) [µg/mL],solubility thermodynamic at 24 h (Thermodynamic solubility; [6]) [µg/mL],solubility thermodynamic at 24 h (Thermodynamic solubility; [7]) [µg/mL],Structure (SMILES)
39.9,94.55,–,–,–,880,31.4,360,"COc1cc2nc(CCC(C)(C)O)cn2cc1NC(=O)c1cccc(C(F)(F)F)n1 [Compound 3, N-[2-(3-hydroxy-3-methyl-butyl)-7-methoxy-imidazo[1,2-a]pyridin-6-yl]-6-(trifluoromethyl)pyridine-2-carboxamide]"
87.75,99.7,–,–,–,116,125,–,"COc1cc2nc(CCC(C)(C)O)cn2cc1NC(=O)c1cccn(C)c1=O [Compound 4, N-[2-(3-hydroxy-3-methyl-butyl)-7-methoxy-imidazo[1,2-a]pyridin-6-yl]-1-methyl-2-oxo-pyridine-3-carboxamide]"
100,95.6,–,–,–,> 1000,798,> 1000,"COc1cc2nc(CCC(C)(C)O)cn2cc1NC(=O)c1cccn(C2CC2)c1=O [Compound 5, 1-cyclopropyl-N-[2-(3-hydroxy-3-methyl-butyl)-7-methoxy-imidazo[1,2-a]pyridin-6-yl]-2-oxo-pyridine-3-carboxamide]"
26.4,78.4,–,–,–,–,15.2,–,"COc1cc2nc(CCC(C)(C)O)cn2cc1NC(=O)c1cccc(C(F)F)n1 [Compound 7, 6-(difluoromethyl)-N-[2-(3-hydroxy-3-methyl-butyl)-7-methoxy-imidazo[1,2-a]pyridin-6-yl]pyridine-2-carboxamide]"
–,–,–,–,–,> 1000,96.8,–,"CCOc1c(NC(=O)c2cccn(C)c2=O)cn2cc(CCC(C)(C)O)nc2c1F [Compound 38, N-[7-ethoxy-8-fluoro-2-(3-hydroxy-3-methyl-butyl)imidazo[1,2-a]pyridin-6-yl]-1-methyl-2-oxo-pyridine-3-carboxamide]"
86,100.95,–,–,–,–,–,–,"CC(C)(O)CCc1cn2cc(NC(=O)c3cccc(C(F)(F)F)n3)c(C(=O)NCC(F)F)cc2n1 [Compound 48, N-(2,2-difluoroethyl)-2-(3-hydroxy-3-methylbutyl)-6-(6-(trifluoromethyl)picolinamido)imidazo[1,2-a]pyridine-7-carboxamide]"
